Results taken from US20180244699A1, “1-HYDROXY-3H-2,1-BENZOXABOROLE DERIVATIVES AND THEIR USE AS MICROBIOCIDES” (Syngenta Participations AG, priority 2015, published 2018).

What was measured:
Format in all cases: cell-based
[1] = system: Glomerella lagenarium (Colletotrichum lagenarium); assay: Glomerella lagenarium (Colletotrichum lagenarium) / liquid culture (anthracnose); settings: Colletotrichum orbiculare, growth inhibition photometrically 3-4 days after application, compared to untreated control
Procedure: (§1) 3. Glomerella lagenarium (Colletotrichum lagenarium)/Liquid Culture (Anthracnose) Conidia of the fungus from cryogenic storage are directly mixed into nutrient broth (PDB potato dextrose broth). After placing a (DMSO) solution of test compound into a microtiter plate (96-well format), the nutrient broth containing the fungal spores is added. The test plates are incubated at 24° C. and the inhibition of growth is measured photometrically 3-4 days after application.

[2] = system: Pythium ultimum; assay: Pythium ultimum / liquid culture (seedling damping off); settings: Globisporangium ultimum, growth inhibition photometrically 2-3 days after application, compared to untreated control
Procedure: 15. Pythium ultimum/Liquid Culture (Seedling Damping Off) Mycelia fragments and oospores of a newly grown liquid culture of the fungus are directly mixed into nutrient broth (PDB potato dextrose broth). After placing a (DMSO) solution of test compound into a microtiter plate (96-well format), the nutrient broth containing the fungal mycelia/spore mixture is added. The test plates are incubated at 24° C. and the inhibition of growth is determined photometrically 2-3 days after application.

[3] = system: Mycosphaerella graminicola (Septoria tritici); assay: Mycosphaerella graminicola (Septoria tritici) / liquid culture (Septoria blotch); settings: Zymoseptoria tritici, growth inhibition photometrically 4-5 days after application, compared to untreated control
Procedure: as §1, with “18. Mycosphaerella graminicola (Septoria tritici)/Liquid” for “3. Glomerella lagenarium (Colletotrichum lagenarium)/Liquid”, “(Septoria Blotch)” for “(Anthracnose)”, “determined” for “measured”, “4-5” for “3-4”

[4] = system: Gaeumannomyces graminis; assay: Gaeumannomyces graminis / liquid culture (take-all of cereals); settings: growth inhibition photometrically 4-5 days after application, compared to untreated control
Procedure: (§2) 6. Gaeumannomyces Graminis/Liquid Culture (Take-all of Cereals) Mycelial fragments of the fungus from cryogenic storage were directly mixed into nutrient broth (PDB potato dextrose broth). After placing a (DMSO) solution of test compound into a microtiter plate (96-well format), the nutrient broth containing the fungal spores is added. The test plates are incubated at 24° C. and the inhibition of growth is determined photometrically 4-5 days after application.

[5] = system: Monographella nivalis (Microdochium nivale); assay: Monographella nivalis (Microdochium nivale) / liquid culture (foot rot cereals); settings: growth inhibition photometrically 4-5 days after application, compared to untreated control
Procedure: as §2, with “8. Monographella nivalis (Microdochium nivale)/Liquid” for “6. Gaeumannomyces Graminis/Liquid”, “(Foot Rot” for “(Take-all of”, “Conidia” for “Mycelial fragments”, “are” for “were”

[6] = system: Thanatephorus cucumeris (Rhizoctonia solani); assay: Thanatephorus cucumeris (Rhizoctonia solani) / liquid culture (foot rot, damping-off); settings: growth inhibition photometrically 3-4 days after application, compared to untreated control
Procedure: 16. Thanatephorus cucumeris (Rhizoctonia solani)/Liquid Culture (Foot Rot, Damping-Off) Mycelia fragments of a newly grown liquid culture of the fungus are directly mixed into nutrient broth (PDB potato dextrose broth). After placing a (DMSO) solution of the test compounds into a microtiter plate (96-well format), the nutrient broth containing the fungal material is added. The test plates are incubated at 24° C. and the inhibition of growth is determined photometrically 3-4 days after application.

Measured: inhibition of growth at 20 ppm

COc1c(C(=O)OCC(F)(F)F)ccc2c1B(O)OC2 [Compound 10, 2,2,2-trifluoroethyl 1-hydroxy-7-methoxy-3H-2,1-benzoxaborole-6-carboxylate]
not listed: [6]
≥ 80%: all other assays above

COc1c(C(=O)OCCOc2ccccc2C)ccc2c1B(O)OC2 [Compound 82, 2-(2-methylphenoxy)ethyl 1-hydroxy-7-methoxy-3H-2,1-benzoxaborole-6-carboxylate]
not listed: [6]
≥ 80%: all other assays above

COc1c(C(=O)OC(C)c2cccc(Cl)c2)ccc2c1B(O)OC2 (centres unmarked) [Compound 83, 1-(3-chlorophenyl)ethyl 1-hydroxy-7-methoxy-3H-2,1-benzoxaborole-6-carboxylate]
≥ 80%: all assays above

COc1c(C(=O)OCc2ccccc2)ccc2c1B(O)OC2 [Compound 85, benzyl 1-hydroxy-7-methoxy-3H-2,1-benzoxaborole-6-carboxylate]
≥ 80%: all assays above

COc1c(C(=O)OC(CC(F)(F)F)c2ccccc2)ccc2c1B(O)OC2 (centres unmarked) [Compound 89, (3,3,3-trifluoro-1-phenyl-propyl) 1-hydroxy-7-methoxy-3H-2,1-benzoxaborole-6-carboxylate]
not listed: [3]
≥ 80%: all other assays above

CCCC1OCC(C)(COC(=O)c2ccc3c(c2OC)B(O)OC3)CO1 (centres unmarked) [Compound 98, (5-methyl-2-propyl-1,3-dioxan-5-yl)methyl 1-hydroxy-7-methoxy-3H-2,1-benzoxaborole-6-carboxylate]
≥ 80%: [2] | [4] | [5]

COc1c(C(=O)OCC2SCCS2)ccc2c1B(O)OC2 [Compound 100, 1,3-dithiolan-2-ylmethyl 1-hydroxy-7-methoxy-3H-2,1-benzoxaborole-6-carboxylate]
not listed: [3]
≥ 80%: all other assays above

COc1c(C(=O)OC2CC=CC2)ccc2c1B(O)OC2 [Compound 104, cyclopent-3-en-1-yl 1-hydroxy-7-methoxy-3H-2,1-benzoxaborole-6-carboxylate]
not listed: [6]
≥ 80%: all other assays above

COc1cccc(C#CCOC(=O)c2ccc3c(c2OC)B(O)OC3)c1 [Compound 107, 3-(3-methoxyphenyl)prop-2-ynyl 1-hydroxy-7-methoxy-3H-2,1-benzoxaborole-6-carboxylate]
≥ 80%: all assays above

CCOC(=O)COC(=O)c1ccc2c(c1OC)B(O)OC2 [Compound 111, (2-ethoxy-2-oxo-ethyl) 1-hydroxy-7-methoxy-3H-2,1-benzoxaborole-6-carboxylate]
not listed: [3]
≥ 80%: all other assays above

COc1c(C(=O)OCc2cc(C)cc(C)c2)ccc2c1B(O)OC2 [Compound 116, (3,5-dimethylphenyl)methyl 1-hydroxy-7-methoxy-3H-2,1-benzoxaborole-6-carboxylate]
≥ 80%: [2] | [4] | [5]

COc1c(C(=O)OCC(C)(C)Cc2ccccc2)ccc2c1B(O)OC2 [Compound 117, (2,2-dimethyl-3-phenyl-propyl) 1-hydroxy-7-methoxy-3H-2,1-benzoxaborole-6-carboxylate]
not listed: [2]
≥ 80%: all other assays above

COc1c(C(=O)OCC2CC2C)ccc2c1B(O)OC2 (centres unmarked) [Compound 118, (2-methylcyclopropyl)methyl 1-hydroxy-7-methoxy-3H-2,1-benzoxaborole-6-carboxylate]
not listed: [6]
≥ 80%: all other assays above

C#CC(CC)OC(=O)c1ccc2c(c1OC)B(O)OC2 (centres unmarked) [Compound 121, 1-ethylprop-2-ynyl 1-hydroxy-7-methoxy-3H-2,1-benzoxaborole-6-carboxylate]
≥ 80%: [1] | [2] | [4] | [5]

COc1c(C(=O)OCCc2ccccc2F)ccc2c1B(O)OC2 [Compound 124, 2-(2-fluorophenyl)ethyl 1-hydroxy-7-methoxy-3H-2,1-benzoxaborole-6-carboxylate]
≥ 80%: all assays above

CCOC(=O)[C@H](C)OC(=O)c1ccc2c(c1OC)B(O)OC2 [Compound 125, [(1S)-2-ethoxy-1-methyl-2-oxo-ethyl] 1-hydroxy-7-methoxy-3H-2,1-benzoxaborole-6-carboxylate]
≥ 80%: [2] | [4] | [5]

COc1ccc(COC(=O)c2ccc3c(c2OC)B(O)OC3)cc1 [Compound 127, (4-methoxyphenyl)methyl 1-hydroxy-7-methoxy-3H-2,1-benzoxaborole-6-carboxylate]
≥ 80%: [1] | [2] | [4] | [5]

COc1ccccc1COC(=O)c1ccc2c(c1OC)B(O)OC2 [Compound 128, (2-methoxyphenyl)methyl 1-hydroxy-7-methoxy-3H-2,1-benzoxaborole-6-carboxylate]
≥ 80%: [2] | [4] | [5]

COc1c(C(=O)OCCC(C)C)ccc2c1B(O)OC2 [Compound 129, isopentyl 1-hydroxy-7-methoxy-3H-2,1-benzoxaborole-6-carboxylate]
not listed: [6]
≥ 80%: all other assays above

COc1c(C(=O)OC(C)CCc2ccccc2)ccc2c1B(O)OC2 (centres unmarked) [Compound 130, (1-methyl-3-phenyl-propyl) 1-hydroxy-7-methoxy-3H-2,1-benzoxaborole-6-carboxylate]
≥ 80%: all assays above
